One experiment relates to HeLaS3 cells. Put plainly: Measurement of cytotoxicity on cultivated human tumour cells (AlamarBlue). It is filed as cell-based. The settings on record: HeLa in Table 1; unit inferred. The protocol:
The activity of the compounds according to the invention was determined in the cytotoxicity test on cultivated human tumour cells and/or in a FACS analysis, for example on HeLaS3 cells.
Measurement of Cytotoxicity on Cultivated Human Tumour Cells
To measure the cytotoxicity on cultivated human tumour cells, cells of the cervical cancer tumour cell line HeLaS3 (obtained from American Type Culture Collection (ATCC)) in Ham's F12 Medium (Life Technologies) and 10% foetal calf serum (Life Technologies) were cultivated and harvested in the logarithmic growth phase. Then the HeLaS3 cells were placed in 96-well plates (Costar) at a density of 1000 cells per well and incubated overnight in an incubator (at 37° C. and 5% CO2), while on each plate 6 wells were filled only with medium (3 wells as a control of the medium, 3 wells for incubation with reduced AlamarBlue). The active substances were added to the cells in various concentrations (dissolved in DMSO; final concentration: 1%) (in each case as a triple measurement). After 72 hours' incubation, 20 μl of AlamarBlue (AccuMed International) were added to each well, and the cells were incubated for a further 7 hours. As a control, 20 μl of reduced Alamar Blue (AlamarBlue reagent which had been autoclaved for 30 min) were added to 3 wells. After 7 h incubation the colour change of the AlamarBlue reagent in the individual wells was determined in a Perkin Elmer fluorescence spectrophotometer (excitation 530 nm, emission 590 nm, slits 15, integrate time 0.1). The amount of AlamarBlue reagent reacted represents the metabolic activity of the cells. The relative cell activity was calculated as a percentage of the control (HeLa S3 cells without inhibitor) and the active substance concentration which inhibits the cell activity by 50% (IC^50) was obtained. The values were calculated from the average of three individual measurements, correcting for the control value (medium control).
(Alamar Blue is a resazurin reagent that responds to reducing activity.)

The test system of another experiment is H460-VINC. Put plainly: Cytotoxicity on H460-VINC cells (Table 1; method not given). The class given is cell-based. The settings on record: H460-VINC of Table 1; unit inferred.

37 compounds from patent publication US7786299B2, “Methods for treating diseases or conditions using dihydropteridinone compounds” (Boehringer Ingelheim Pharma GmbH & Co. KG, priority 2003, dated 2010) can be followed below.

In general, IC50 refers to the concentration that inhibits the measured activity by half. Low readings indicate greater potency in that assay, high ones weaker potency in that assay. For `CCC1C(=O)N(C)c2cnc(Nc3ccc(C(=O)NC4CCC(N5CCCC5)CC4)cc3OC)nc2N1C1CCCC1` (centres unmarked) [Example 19], the concentration for half-maximal inhibition (IC50) in the experiment on HeLaS3 cells came out at 13 nM; in the experiment on H460-VINC it was 747 nM.

Turning to `CCN1CCC(NC(=O)c2ccc(Nc3ncc4c(n3)N(CC(C)(C)C)C(C)C(=O)N4C)c(OC)c2)CC1` (centres unmarked) [Example 6], the IC50 in the experiment on HeLaS3 cells was 53 nM; in the experiment on H460-VINC, 822 nM.

As to `CC[C@@H]1C(=O)N(C)c2cnc(Nc3ccc(C(=O)NCCCCN(CC)CC)cc3OC)nc2N1CCC(C)C` [Example 153], the IC50 with HeLaS3 cells was 72 nM; with H460-VINC, 2640 nM.

For `CC[C@@H]1C(=O)N(C)c2cnc(Nc3ccc(C(=O)NCCCN(CC)CC)cc3OC)nc2N1CCC(C)C` [Example 165], the figures for the IC50 with HeLaS3 cells and in the experiment on H460-VINC were 46 nM and 668 nM, respectively.

For `CCC1C(=O)N(C)c2cnc(Nc3ccc(C(=O)NC4CCC(N5CCOCC5)CC4)cc3OC)nc2N1C(C)C` (centres unmarked) [Example 27], the values for the IC50 in the experiment with HeLaS3 cells and with H460-VINC were 14 nM and 164 nM, respectively.

As for `CCN1CCC(NC(=O)c2ccc(Nc3ncc4c(n3)N(CC(C)(C)C)C(C)C(=O)N4C)cc2)CC1` (centres unmarked) [Example 11], the IC50 in the experiment with HeLaS3 cells was found to be 86 nM; in the experiment with H460-VINC it was 1300 nM.

For `CCC1C(=O)N(C)c2cnc(Nc3ccc(C(=O)NC4CCC(N5CCOCC5)CC4)cc3OC)nc2N1C1CCCC1` (centres unmarked) [Example 131], the IC50 came out at 23 nM in the experiment on HeLaS3 cells and 101 nM in the experiment with H460-VINC.

Turning to `CCN1CCC(NC(=O)c2ccc(Nc3ncc4c(n3)N(C3CCCC3)C(C)C(=O)N4C)cc2)CC1` (centres unmarked) [Example 18], the IC50 is 40 nM in the experiment with HeLaS3 cells and 1760 nM in the experiment on H460-VINC.

`COc1cc(C(=O)NC2CCC(N3CCCCC3)CC2)ccc1Nc1ncc2c(n1)N(C1CCCCC1)C(C)C(=O)N2C` (centres unmarked) [Example 126]: the figures for the IC50 with HeLaS3 cells and in the experiment on H460-VINC were 51 nM and 742 nM, respectively.

Take `CCC1C(=O)N(C)c2cnc(Nc3ccc(C(=O)NCC(C)(C)CN(C)C)cc3OC)nc2N1C1CCCC1` (centres unmarked) [Example 58]: the IC50 in the experiment with HeLaS3 cells was found to be 10 nM; with H460-VINC, 23 nM.

As for `CC[C@@H]1C(=O)N(C)c2cnc(Nc3ccc(C(=O)NCCN4CCCC4)cc3OC)nc2N1CCC(C)C` [Example 170], the figures for the IC50 with HeLaS3 cells and in the experiment on H460-VINC were 45 nM and 427 nM, respectively.

Take `COc1cc(C(=O)NC2CCC(N3CCCCC3)CC2)ccc1Nc1ncc2c(n1)N(C1CCCC1)C(C)C(=O)N2C` (centres unmarked) [Example 16]: the IC50 in the experiment on HeLaS3 cells came out at 17 nM; in the experiment on H460-VINC, 483 nM.

As for `CC[C@@H]1C(=O)N(C)c2cnc(Nc3ccc(C(=O)NCCCN(C)C)cc3OC)nc2N1CCC(C)C` [Example 164], the IC50 with HeLaS3 cells was 30 nM; in the experiment on H460-VINC it was 975 nM.

Consider `COc1cc(C(=O)NC2CCC(N3CCOCC3)CC2)ccc1Nc1ncc2c(n1)N(C(C)C)C(C)C(=O)N2C` (centres unmarked) [Example 26], for which the IC50 with HeLaS3 cells stood at 59 nM; in the experiment with H460-VINC it was 424 nM.

For `COc1cc(C(=O)NC2CCN(C)CC2)ccc1Nc1ncc2c(n1)N(C1CCCC1)[C@H](C)C(=O)N2C` [Example 80], the IC50 with HeLaS3 cells came out at 38 nM; in the experiment on H460-VINC, 286 nM.

As for `COc1cc(C(=O)NC2CCC(N3CCOCC3)CC2)ccc1Nc1ncc2c(n1)N(C1CCCCC1)C(C)C(=O)N2C` (centres unmarked) [Example 137], the IC50 in the experiment with HeLaS3 cells came to 39 nM; in the experiment on H460-VINC, 148 nM.

For `COc1cc(C(=O)NC2CCN(C)CC2)ccc1Nc1ncc2c(n1)N(CC(C)(C)C)C(C)C(=O)N2C` (centres unmarked) [Example 145], the IC50 in the experiment with HeLaS3 cells is 43 nM; in the experiment on H460-VINC, not below 3000 nM.

Regarding `CCN1CCC(NC(=O)c2ccc(Nc3ncc4c(n3)N(C(C)C)C(C)C(=O)N4C)c(OC)c2)CC1` (centres unmarked) [Example 20], the IC50 is 83 nM with HeLaS3 cells and not below 3000 nM with H460-VINC.

Take `COc1cc(C(=O)NC2CCN(C3CCOCC3)CC2)ccc1Nc1ncc2c(n1)N(C1CCCCC1)C(C)C(=O)N2C` (centres unmarked) [Example 120]: the IC50 turned out to be 14 nM in the experiment with HeLaS3 cells and 374 nM in the experiment with H460-VINC.

In the case of `COc1cc(C(=O)NC2CCN(C)CC2)ccc1Nc1ncc2c(n1)N(CCC(C)C)C(C)C(=O)N2C` (centres unmarked) [Example 146], the IC50 in the experiment with HeLaS3 cells is 66 nM; in the experiment on H460-VINC, 966 nM.

For the compound `COc1cc(C(=O)NC2CCN(C(C)C)CC2)ccc1Nc1ncc2c(n1)N(CC(C)(C)C)C(C)C(=O)N2C` (centres unmarked) [Example 7], the IC50 amounted to 84 nM in the experiment on HeLaS3 cells and 865 nM with H460-VINC.

As for `CC[C@@H]1C(=O)N(C)c2cnc(Nc3ccc(C(=O)NCCN4CCOCC4)cc3OC)nc2N1CCC(C)C` [Example 156], the results for the IC50 in the experiment with HeLaS3 cells and in the experiment with H460-VINC were 48 nM and 481 nM, respectively.

As for `CC[C@@H]1C(=O)N(C)c2cnc(Nc3ccc(C(=O)NCCN(C(C)C)C(C)C)cc3OC)nc2N1CCC(C)C` [Example 160], the IC50 in the experiment on HeLaS3 cells came to 37 nM; with H460-VINC, 728 nM.

For `CC[C@@H]1C(=O)N(C)c2cnc(Nc3ccc(C(=O)NC4CCN(C)CC4)cc3OC)nc2N1CCC(C)C` [Example 171], the IC50 with HeLaS3 cells was 31 nM; in the experiment on H460-VINC, 790 nM.

In the case of `COc1cc(C(=O)NC2CCC(N3CCOCC3)CC2)ccc1Nc1ncc2c(n1)N(C1CCCCC1)C(C)C(=O)N2C` (centres unmarked) [Example 130], the IC50 with HeLaS3 cells came to 15 nM; with H460-VINC, 91 nM.

For `CC1C(=O)N(C)c2cnc(Nc3ccc(C(=O)NC4CCN(C)CC4)cc3)nc2N1c1ccccc1` (centres unmarked) [Example 48], the IC50 was 83 nM with HeLaS3 cells and not below 3000 nM with H460-VINC.

Regarding `CC[C@@H]1C(=O)N(C)c2cnc(Nc3ccc(C(=O)NCCN(CC)CC)cc3OC)nc2N1CCC(C)C` [Example 158], the IC50 was 43 nM with HeLaS3 cells and 536 nM in the experiment on H460-VINC.

On to `COc1cc(C(=O)NC(C)(C)CN2CCCC2)ccc1Nc1ncc2c(n1)N(C1CCCCC1)[C@H](C)C(=O)N2C` [Example 87], for which the IC50 in the experiment with HeLaS3 cells came out at 29 nM; in the experiment with H460-VINC it was 66 nM.

As to `CC[C@@H]1C(=O)N(C)c2cnc(Nc3ccc(C(=O)NCCCN4CCCCC4)cc3OC)nc2N1CCC(C)C` [Example 169], the IC50 with HeLaS3 cells turned out to be 44 nM; in the experiment with H460-VINC it was 503 nM.

For the compound `COc1cc(C(=O)NCCN2CCCCC2)ccc1Nc1ncc2c(n1)N(C1CCCC1)C(C)C(=O)N2C` (centres unmarked) [Example 66], the IC50 with HeLaS3 cells stood at 64 nM; with H460-VINC it was 250 nM.

On to `COc1cc(C(=O)NC2CCN(C(C)C)CC2)ccc1Nc1ncc2c(n1)N(CCC(C)C)C(C)C(=O)N2C` (centres unmarked) [Example 2], for which the IC50 is 56 nM in the experiment on HeLaS3 cells and 971 nM in the experiment on H460-VINC.

For the compound `CC(C)N1c2nc(Nc3ccc(C(=O)NC4CC(C)(C)N(C)C(C)(C)C4)cc3)ncc2N(C)C(=O)[C@H]1C` [Example 33], the IC50 is 97 nM in the experiment with HeLaS3 cells and not below 3000 nM in the experiment on H460-VINC.

In the case of `C[C@@H]1C(=O)N(C)c2cnc(Nc3ccc(C(=O)NC4CC(C)(C)N(C)C(C)(C)C4)cc3)nc2N1C1CCCC1` [Example 31], the IC50 in the experiment with HeLaS3 cells was 23 nM; in the experiment on H460-VINC, not below 3000 nM.

On to `COc1cc(C(=O)N[C@H]2CC[C@H](N3CCOCC3)CC2)ccc1Nc1ncc2c(n1)N(CCC(C)C)[C@H](C)C(=O)N2C` [Example 38], for which the IC50 in the experiment on HeLaS3 cells is 87 nM; in the experiment on H460-VINC, 278 nM.

Take `CC[C@@H]1C(=O)N(C)c2cnc(Nc3ccc(C(=O)NCCC4CCCN4C)cc3OC)nc2N1CCC(C)C` (some centres unmarked) [Example 167]: the figures for the IC50 with HeLaS3 cells and in the experiment with H460-VINC were 34 nM and 817 nM, respectively.

For `CCC1C(=O)N(C)c2cnc(Nc3ccc(C(=O)NC4CC(C)(C)N(C)C(C)(C)C4)cc3OC)nc2N1C1CCCC1` (centres unmarked) [Example 21], the IC50 was determined as 9 nM in the experiment with HeLaS3 cells and 488 nM with H460-VINC.

Turning to `CCC1C(=O)N(C)c2cnc(Nc3ccc(C(=O)NC4CCN(C)CC4)cc3OC)nc2N1C1CCCC1` (centres unmarked) [Example 46], the IC50 turned out to be 12 nM in the experiment with HeLaS3 cells and 208 nM in the experiment with H460-VINC.
